“Also recorded” adds a separate entry of the source.
target: T1, KATP ion channels of beta cells in the pancreas (HIT-T15 cells) (UniProt A0A1U7QRT4+Q09427); assay: Electro-physiological experiment: whole cell patch clamp recording of KATP current; type: cell-based; conditions: single compounds vs GBC; FIG. 5
T1 construct: endogenous in cells; host or cells: HIT-T15 cells
Experimental: HIT-T15 cells used for the experimental examples below were cultivated in an RPMI 1640 culture medium containing horse serum (10%, v/v), fetal bovine serum (2.5% v/v), and 1% penicillin-streptomycin, in a 5% CO2 incubator at 37° C.
Since type II diabetes is directly related to the KATP ion channels of beta cells in the pancreas (Tarasov, A. et al., Diabetes., 53(3), pp. S113-S122, 2004), it was tested whether or not the Lithospermum erythrorhizon extract obtained in the above example or the shikonin compounds isolated therefrom blocks the KATP ion channels of beta cells in the pancreas.
The ion current was recorded by a conventional whole cell patch clamp method, using a patch clamp amplifier (EPC-9, Heka Elektronik, Lambrecht, Germany). The measurement electrode was pulled from a borosilicate glass capillary using a puller (DMZ-Universal Puller; Dagan Co., USA). The electrode was selected to have a resistance of 6 to 9 MΩ when a solution was filled in the electrode. A cover glass, to which the cells were adhered, was placed on a microscope, and the extra-cellular fluid was allowed to flow, due to gravity, at a speed of up to 0.5 ml/min. When measuring the KATP electric current, the solution inside the electrode included (in mM): 10 NaCl, 102 KCl, 1 CaCl2, 1 MgCl2, 10 HEPES, 0.1 Na2-ATP, 1 Na2-GTP, and 10 EGTA (pH 7.2). To utilize the voltage-clamp method in taking records, the capacitance and series resistance of the cell membranes were compensated by 80% or higher, and the low-pass filter was set to 1 kHZ during the experiments. To measure the KATP electric current, the cell solution was substituted with 110 mM of a barium solution (mM: 110 BaCl2, 10 HEPES, 10 glucose), after which the membrane potential was fixed at −60 mV, and the resulting introvert current was recorded. The experiment results were stored in a Pentium level IBM computer and analyzed using Pulse/Pulsefit (v8.65) software (Heka Elektronik, Lambrecht, Germany), and all of the experiments were performed at room temperature.

T1 sequence (Q09427 whole entry): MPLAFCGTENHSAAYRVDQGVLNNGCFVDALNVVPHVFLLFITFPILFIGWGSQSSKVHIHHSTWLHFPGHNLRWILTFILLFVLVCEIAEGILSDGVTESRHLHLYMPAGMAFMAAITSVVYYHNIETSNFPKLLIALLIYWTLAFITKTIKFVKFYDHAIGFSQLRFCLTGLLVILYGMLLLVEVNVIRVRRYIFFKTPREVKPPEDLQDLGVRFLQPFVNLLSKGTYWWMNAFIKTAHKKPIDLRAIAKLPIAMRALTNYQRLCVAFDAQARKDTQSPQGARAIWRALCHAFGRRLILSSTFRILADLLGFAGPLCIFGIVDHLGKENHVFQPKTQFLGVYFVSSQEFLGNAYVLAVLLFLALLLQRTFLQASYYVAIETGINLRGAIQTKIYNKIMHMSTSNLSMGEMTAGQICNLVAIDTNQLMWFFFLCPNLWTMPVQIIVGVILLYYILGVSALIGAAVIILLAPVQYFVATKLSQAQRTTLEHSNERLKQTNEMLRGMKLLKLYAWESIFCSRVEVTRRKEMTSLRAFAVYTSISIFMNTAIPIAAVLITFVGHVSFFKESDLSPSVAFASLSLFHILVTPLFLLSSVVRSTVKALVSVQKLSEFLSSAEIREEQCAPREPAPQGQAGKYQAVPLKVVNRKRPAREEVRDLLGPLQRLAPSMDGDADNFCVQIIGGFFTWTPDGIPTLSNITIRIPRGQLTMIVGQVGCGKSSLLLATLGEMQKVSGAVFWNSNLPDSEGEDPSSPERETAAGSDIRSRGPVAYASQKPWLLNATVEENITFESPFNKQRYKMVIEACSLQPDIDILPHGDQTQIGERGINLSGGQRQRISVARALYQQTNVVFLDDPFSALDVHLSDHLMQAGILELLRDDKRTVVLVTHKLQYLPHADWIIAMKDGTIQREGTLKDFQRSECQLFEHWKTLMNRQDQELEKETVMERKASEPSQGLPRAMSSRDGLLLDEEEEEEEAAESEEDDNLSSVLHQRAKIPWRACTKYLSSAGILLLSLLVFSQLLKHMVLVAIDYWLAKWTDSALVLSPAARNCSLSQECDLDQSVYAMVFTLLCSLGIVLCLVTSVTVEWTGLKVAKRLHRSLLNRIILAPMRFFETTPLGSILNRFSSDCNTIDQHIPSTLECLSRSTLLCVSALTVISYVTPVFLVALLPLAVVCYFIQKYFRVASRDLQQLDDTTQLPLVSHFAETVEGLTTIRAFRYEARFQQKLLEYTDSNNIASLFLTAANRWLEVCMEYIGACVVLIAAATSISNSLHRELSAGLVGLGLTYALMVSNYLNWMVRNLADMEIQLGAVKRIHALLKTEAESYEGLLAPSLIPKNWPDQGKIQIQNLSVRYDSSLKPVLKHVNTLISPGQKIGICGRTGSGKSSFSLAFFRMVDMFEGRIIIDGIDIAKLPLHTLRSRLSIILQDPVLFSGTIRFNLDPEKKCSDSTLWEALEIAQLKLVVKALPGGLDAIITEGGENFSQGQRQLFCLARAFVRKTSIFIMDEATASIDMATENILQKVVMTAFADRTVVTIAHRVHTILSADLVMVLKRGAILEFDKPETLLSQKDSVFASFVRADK
T1 sequence (A0A1U7QRT4 1-390): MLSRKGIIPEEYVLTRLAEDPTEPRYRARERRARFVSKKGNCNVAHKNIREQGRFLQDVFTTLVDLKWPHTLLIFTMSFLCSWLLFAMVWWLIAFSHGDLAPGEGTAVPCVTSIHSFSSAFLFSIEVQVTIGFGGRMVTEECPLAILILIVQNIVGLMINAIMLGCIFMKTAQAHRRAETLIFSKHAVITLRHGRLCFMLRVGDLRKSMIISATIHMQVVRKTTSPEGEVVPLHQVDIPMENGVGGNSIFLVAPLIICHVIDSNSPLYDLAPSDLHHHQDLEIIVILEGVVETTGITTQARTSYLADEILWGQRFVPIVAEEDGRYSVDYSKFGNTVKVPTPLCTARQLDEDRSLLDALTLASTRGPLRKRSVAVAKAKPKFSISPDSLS

Structure (SMILES) | inhibition of KATP ion channels by shikonin single compounds compared with GBC
CC(C)=CCC(OC(=O)C=C(C)C)C1=CC(=O)c2c(O)ccc(O)c2C1=O (stereo not drawn) [DS, β. β-dimethylacryl Shikonin] | effectively inhibit KATP ion channels; also recorded: the best in providing the inhibitory effects
CCC(C)C(=O)OC(CC=C(C)C)C1=CC(=O)c2c(O)ccc(O)c2C1=O (stereo not drawn) [MS, α-methyl-n-butyryl Shikonin] | effectively inhibit KATP ion channels
CC(C)=CCC(OC(=O)C(C)C)C1=CC(=O)c2c(O)ccc(O)c2C1=O (stereo not shown) [BS, Isobutyryl Shikonin] | effectively inhibit KATP ion channels
CC(C)=CCC(OC(=O)CC(C)C)C1=CC(=O)c2c(O)ccc(O)c2C1=O (stereo not shown) [VS, Isovaleryl Shikonin] | effectively inhibit KATP ion channels; also recorded: the best in providing the inhibitory effects
